Measured values taken from patent US20100160266A1, “ORGANIC COMPOUNDS” (NABRIVA TH[…], priority 2005, published 2010).

Tested on: anaerobic bacteria
Assay: in vitro acne assays: MIC by agar dilution technique on Wilkins-Chalgren Agar (NCCLS guidelines)
Type: cell-based
Conditions: compared with the same pleuromutilin in the form of a hydrochloride
Procedure: E.g. in commercially available in vitro acne assays (the determination of the minimal inhibitory concentration (MIC) is performed according to the approved NCCLS guidelines^1) by agar dilution technique on Wilkins-Chalgren Agar—1) National committee for clinical laboratory standards. Methods for Antimicrobial susceptibility testing of anaerobic bacteria. 1993.

Structure (SMILES): C=CC1(C)CC(OC(=O)CSC2CCCN(C(=O)C(N)C(C)C)C2)C2(C)C(C)CCC3(CCC(=O)C32)C(C)C1O [Example 1, 14-O—[(N—((R)-Valyl)-piperidine-3(S)-yl)-sulfanylacetyl)-mutilin]
- activity in in vitro acne assays (minimal inhibitory concentration, MIC): remarkably better activity
